Test results published in patent publication US4636515A, “Non-classical topical treatment for glaucoma” (University of Iowa Research Foundation, priority 1984, dated 1987).

Legend:
[1] = test system: eye of normal adult white rabbits; assay: Salted rabbit test: intraocular pressure after topical instillation; assay type: in vivo; conditions: for IOP change, Av. Chg.: 1% w/v suspension, 3 drops topical, vs placebo fellow eye, six rabbits
Procedure: In particular, an initial drop from the test formulation followed by two drops at one minute intervals are applied to one eye of each of six adult white rabbits that had been maintained on a diet containing 0.5% sodium. The treated eye was selected randomly, whereas, the fellow eye received placebo; the observer was masked. Results identified a small but significant reduction of intraocular pressure in the treated eye at 30, 60 and 120 minutes.
One drop, followed by two drops each at one minute intervals, was applied to one eye of normal adult white rabbits. Six rabbits were used in the experiment. The treated eye was selected randomly, whereas, the fellow eye received placebo. The observer was masked. The intraocular pressure (IOP) was measured with a Digilab pneumotonometer, initially and every ten minutes for 120 minutes following instillation of the anti-glaucoma agent. A drop of local anesthetic was applied just prior to making the measurement.

carbonic anhydrase = assay: in vitro carbonic anhydrase activity, simplified method of Maren; assay type: biochemical
Procedure: The procedure required the use of a specialized glass reaction vessel to which was added 0.4 ml phenol red indicator (0.00125%), 0.25 to 0.30 ml heparinized blood containing 2 enzyme units of carbonic anhydrase, 0.1 ml drug solution (0.01 to 100 mg/L) and 0.1 ml of 0.255 M carbonate buffer. […] Each reagent was added at a specified time and in a specified order. […] Reaction time was the time for the uncatalyzed reaction time. […] By varying the time before adding the carbonate buffer and then determining the reaction time, the equilibration time can be accurately determined. The reaction time was averaged over three determinations. A range of drug concentrations were reacted and the concentration of drug causing 50% inhibition of enzyme (I50) read from a plot of reaction time against drug concentration. (If two enzyme units are added, then the concentration of drug yielding a reaction time corresponding to the activity of one unit is taken as the I50).

Row | SMILES | IOP change, Av. Chg. ([1]; 10 minutes) [mm Hg] | IOP change, Av. Chg. ([1]; 20 minutes) [mm Hg] | IOP change, Av. Chg. ([1]; 30 minutes) [mm Hg] | IOP change, Av. Chg. ([1]; 40 minutes) [mm Hg] | IOP change, Av. Chg. ([1]; 50 minutes) [mm Hg] | IOP change, Av. Chg. ([1]; 60 minutes) [mm Hg] | IOP change, Av. Chg. ([1]; 70 minutes) [mm Hg] | IOP change, Av. Chg. ([1]; 80 minutes) [mm Hg] | IOP change, Av. Chg. ([1]; 90 minutes) [mm Hg] | IOP change, Av. Chg. ([1]; 100 minutes) [mm Hg] | IOP change, Av. Chg. ([1]; 110 minutes) [mm Hg] | IOP change, Av. Chg. ([1]; 120 minutes) [mm Hg] | effect on intraocular pressure (IOP) in vivo (in words) ([1]; after topical administration) | lowering of IOP, statistical significance ([1]; all time intervals, 10 to 120 minutes) | I50 (concentration of drug causing 50% inhibition of enzyme), averaged (carbonic anhydrase; heparinized blood containing 2 enzyme units of carbonic anhydrase, 0° C.) [mg/L] | time required for carbonic anhydrase to reach an equilibrium with drug (carbonic anhydrase; time between addition of drug solution and carbonate buffer) [s]
1 | CNS(=O)(=O)c1nnc(NC(C)=O)s1 [methyl acetazolamide, N-methyl-2-acetylamino-1,3,4-thiadiazole-5-sulfonamide] | -2 | -1.67 | -2.33 | -0.40 | -1.83 | -1.67 | -1.67 | -2.14 | -1.50 | -2.67 | -0.67 | -1.5 | able to reduce intraocular pressure | statistically significant | 0.520 | 
2 | Nc1ccc(S(N)(=O)=O)cc1 [sulfanilamide, reference compound] |  |  |  |  |  |  |  |  |  |  |  |  |  |  |  | 10
